The source of these data is ChEMBL document CHEMBL1151127, “Studies of Swedish Marine Organisms, Part X. Biologically Active Compounds from the Marine Sponge Geodia baretti” (1988).

Assay [1] has as its system Ileum. Description: Inhibition of electrically-stimulated contraction in guinea pig ileum at 50 ug/ml. Format: functional. As to conditions: Cavia porcellus.
Assay [2] deals with Ileum. Nature of the assay: Contractile activity in guinea pig ileum at 50 ug/ml relative to histamine. The class given is functional, Cavia porcellus.
For assay [3], the system named is Ileum. Nature of the assay: Inhibition of electrically-stimulated contraction in guinea pig ileum at 1200 ug/ml. As to conditions: Cavia porcellus. Format: functional.
For assay [4], the system named is Ileum. Nature of the assay: Contractile activity in guinea pig ileum at 1200 ug/ml relative to histamine. Format: functional, Cavia porcellus.
Assay [5] deals with Ileum. Nature of the assay: Contractile activity in guinea pig ileum at 15 ug/ml relative to histamine. Format: functional, Cavia porcellus.
Assay [6] deals with Ileum. Description: Inhibition of electrically-stimulated contraction in guinea pig ileum at 15 ug/ml. The class given is functional. The note with it: Cavia porcellus.
Assay [7] deals with Ileum. Nature of the assay: Contractile activity in guinea pig ileum at 200 ug/ml relative to histamine. The class given is functional, Cavia porcellus.
For assay [8], the system named is Ileum. Description: Inhibition of electrically-stimulated contraction in guinea pig ileum at 200 ug/ml. Format: functional. As to conditions: Cavia porcellus.
The subject of assay [9] is Ileum. Nature of the assay: Contractile activity in guinea pig ileum at 232 ug/ml relative to histamine. The class given is functional, Cavia porcellus.
Assay [10] relates to Ileum. Description: Inhibition of electrically-stimulated contraction in guinea pig ileum at 232 ug/ml. The class given is functional. The note with it: Cavia porcellus.
Assay [11] has as its system Ileum. Description: Inhibition of electrically-stimulated contraction in guinea pig ileum at 67 ug/ml. As to conditions: Cavia porcellus. The class given is functional.
Assay [12] has as its system Ileum. Description: Contractile activity in guinea pig ileum at 67 ug/ml relative to histamine. The class given is functional, Cavia porcellus.

As to `Cn1c(=O)ccn([C@H]2C[C@H](O)[C@@H](CO)O2)c1=O`, in the assay on Ileum [1], 50 µg/mL produced 0% inhibition. The molecule further displayed an Activity in the assay on Ileum [2] of 0%.
In the case of `Nc1ccn([C@H]2C[C@H](O)[C@@H](CO)O2)c(=O)n1` [DOXECITINE], the inhibition (as a rule, the relative decrease from the control value, in per cent) at 1200 µg/mL in the assay with Ileum [3] turned out to be 27%. This molecule also returned an Activity in the assay on Ileum [4] of 0%.
`N=C(N)NCCC[C@@H]1NC(=O)/C(=C/c2c[nH]c3cc(Br)ccc23)NC1=O` [BARETTIN] showed an Activity with Ileum [5] of 0%. This molecule returned an inhibition at 15 µg/mL in the assay on Ileum [6] of 62%.
Take `O=c1ccn([C@@H]2O[C@H](CO)[C@@H](O)[C@H]2O)c(=O)[nH]1` [URIDINE]: the inhibition at 1200 µg/mL with Ileum [3] came out at 83%. The molecule also displayed an Activity in the assay with Ileum [4] of 0%.
In turn, `Nc1ncnc2c1ncn2[C@@H]1O[C@H](CO)[C@@H](O)[C@H]1O` [ADENOSINE] displayed an Activity in the assay on Ileum [5] of 0%. Further, 15 µg/mL produced 85% inhibition with Ileum [6].
Consider `O=c1[nH]cnc2c1ncn2[C@@H]1O[C@H](CO)[C@@H](O)[C@H]1O` [INOSINE], for which, in the assay on Ileum [7], the Activity stood at 0%. This molecule gave an inhibition at 200 µg/mL with Ileum [8] of 23%.
In the assay with Ileum [9], `Cn1c(=N)ccn([C@H]2C[C@H](O)[C@@H](CO)O2)c1=O` registered an Activity of 60%. The inhibition at 232 µg/mL with Ileum [10] came to 0%.
Regarding `Nc1ccn([C@@H]2O[C@H](CO)[C@@H](O)[C@H]2O)c(=O)n1` [CYTIDINE], the inhibition at 1200 µg/mL with Ileum [3] turned out to be 0%. The same molecule registered an Activity in the assay on Ileum [4] of 0%.
In the assay on Ileum [11], `Cn1c(=N)ccn([C@@H]2O[C@H](CO)[C@@H](O)[C@H]2O)c1=O` returned an inhibition at 67 µg/mL of 0%. Also, the Activity in the assay with Ileum [12] is given as 60%.
